Patent publication US12390470B2, “1-methylxanthine-based bioactive composition and method of use thereof” (Ingenious Ingredients, LP, priority 2021, dated 2025)

Experiments:
male Swiss Albino mice = assay: Forced swim test; type: in vivo
Method: (§1) Twenty-four 8-week-old male Swiss Albino mice were housed in an animal room at a constant temperature (22±3° C.) and humidity (30%-70%) under a 12:12 h light-dark cycle with standard laboratory diet (Purina 5L79, Rat and Mouse 18% protein; PMI Nutrition International, Brentwood, MO, USA). Distilled water was provided ad libitum. All animal experiments were reviewed and approved by the Institutional Animal Ethical Committee (IAEC) of Radiant Research Services Pvt. Ltd (Bangalore, India). All research was conducted in accordance with the guidelines of the committee for the purpose of control and supervision of experiments on animals.
After one week of acclimation, the animals were randomly divided by body weight into three groups (n=8 per group in each test) for oral treatment once a day, at approximately same time each day (±1 hour), for 28 consecutive days: (1) vehicle control or (2) 1-methylxanthine or (3) 1-methylxanthine plus paraxanthine. The dose administered to the mice was calculated using US Food and Drug Administration for human equivalence doses (HED), assuming a human weight of 60 kg. The following HED was used in this study: 100 mg 1-methylxanthine (Ingenious Ingredients, L.P Lewisville, TX, USA; mouse dose: 20.5 mg/kg bw/day), or 100 mg 1-methylxanthine (Ingenious Ingredients, L.P Lewisville, TX, USA; mouse dose: 20.5 mg/kg bw/day) plus 100 mg paraxanthine (ENFINITY™, Ingenious Ingredients, L.P Lewisville, TX, USA; mouse dose: 20.5 mg/kg bw/day). 0.5% Carboxy Methyl Cellulose sodium was used as vehicle and the test item formulations were prepared daily. Dosing was conducted via oral gavage using disposable polypropylene syringes with sterilized stainless steel gavage tubes. Food intake was monitored daily while water intake was ad libitum.
During treatment period, training was accomplished on a swimming chamber at a moderate room temperature for 15 mins. The animals were adapted to this procedure daily 1 hr after dosing for 5 days in a week during the treatment period. On 28th day of respective treatment of all the animals were subjected to force swim test. Animals were forced to swim individually for 30 min in a glass jar of height 20 cm, diameter 10 cm, and filled with fresh water to a depth of 15 cm at room temperature. The parameters measured were first occurrence of climbing (the period the animal tries to climb the wall of the chamber), duration of immobility (the total time during which the animal is immobile) and total time spent in active swimming (the total duration during which the animal swims throughout the experimental period).

[1] = Organ weight (liver, heart), Example 3; type: in vivo; settings: mice, 28 days
Method: as §1
After one week of acclimation, the animals were randomly divided by body weight into three groups (n=8 per group in each test) for oral treatment once a day, at approximately same time each day (±1 hour), for 28 consecutive days: (1) vehicle control or (2) 1-methylxanthine or (3) 1-methylxanthine plus paraxanthine. The dose administered to the mice was calculated using US Food and Drug Administration for human equivalence doses (HED), assuming a human weight of 60 kg. […] Food intake was monitored daily while water intake was ad libitum.

participant = assay: Wakefulness by Visual Analog Scale; type: in vivo, human; settings: Person two
Method: One participant ingested a non-energetic placebo (maltodextrin) followed by 200 mg dose of 1-methylxanthine (1-MX) one week later, orally with 8 fluid ounces of cold tap water. Wakefulness was measured by Visual Analog Scale (VAS) at baseline, 30, 60, 90, 120 and 180 minutes after ingestion.

participants = assay: Anxiety by Visual Analog Scale; type: in vivo, human; design: Anxiety (Visual Analog Scale) / Anxiety (VAS) MEAN (30-180) / Anxiety (VAS) Δ vs. CA: scale not given here
Method: All supplements were orally ingested with 8 fluid ounces of cold tap water. Anxiety was measured by Visual Analog Scale (VAS) at baseline, 30, 60, 90, 120 and 180 minutes after ingestion.

Question: What does the source list for Cn1c(=O)[nH]c2nc[nH]c2c1=O [1-methylxanthine, 1-Methyl-3H-purine-2,6-dione]?
Answer: Duration of immobility (male Swiss Albino mice; 30 min forced swim, day 28): 9.74 ± 0.79 min; duration of mobility/active swimming (male Swiss Albino mice; 30 min forced swim, day 28): 20.26 ± 0.79 min; number of climbing (male Swiss Albino mice; forced swim, day 28): 6.7±1.16; Duration of immobility lower compared to control (male Swiss Albino mice; mouse, in vivo): 5.4%; duration of mobility/active swimming greater compared to control (male Swiss Albino mice; mouse, in vivo): 2.8%; number of climbing improved compared to control (male Swiss Albino mice; mouse, in vivo): 6.0%; Overall outcome on energy, endurance, mood (male Swiss Albino mice; summary): showed improved energy and endurance, improved mood; Heart weight [1]: 188.50 ± 3.12 mg; Liver weight [1]: 1850.88 ± 39.96 mg; Wakefulness (VAS) MEAN (participant): 69.0; Wakefulness (Visual Analog Scale) (participant; 30 min): 65; Wakefulness (Visual Analog Scale) (participant; 60 min): 65; Wakefulness (Visual Analog Scale) (participant; 90 min): 65; Wakefulness (Visual Analog Scale) (participant; 120 min): 75; Wakefulness (Visual Analog Scale) (participant; 180 min): 75; Wakefulness (Visual Analog Scale) (participant; time 0, 200 mg oral): 60; lower feelings of anxiety in comparison to CA (participants; 200 mg oral): 21%; Anxiety (VAS) MEAN (30-180) (participants; Average): 58.8; Anxiety (VAS) Mean Δ from 0 (participants; Average): +1.3; Anxiety (VAS) MEAN (30-180) (participants; Person one): 48.6; Anxiety (VAS) Mean Δ from 0 (participants; Person one): −1.4; Anxiety (VAS) Δ vs. CA (participants; Person one): −26.0; Anxiety (Visual Analog Scale) (participants; Person one, 30 min): 51; Anxiety (Visual Analog Scale) (participants; Person one, 60 min): 40; Anxiety (Visual Analog Scale) (participants; Person one, 90 min): 40; Anxiety (Visual Analog Scale) (participants; Person one, 120 min): 51; Anxiety (Visual Analog Scale) (participants; Person one, 180 min): 61; Anxiety (Visual Analog Scale) (participants; Person one, time 0, 200 mg oral): 50; Anxiety (VAS) MEAN (30-180) (participants; Person two): 69.0; Anxiety (VAS) Mean Δ from 0 (participants; Person two): +4.0; Anxiety (VAS) Δ vs. CA (participants; Person two): −5.2; Anxiety (Visual Analog Scale) (participants; Person two, 30 min): 65; Anxiety (Visual Analog Scale) (participants; Person two, 60 min): 65; Anxiety (Visual Analog Scale) (participants; Person two, 90 min): 65; Anxiety (Visual Analog Scale) (participants; Person two, 120 min): 75; Anxiety (Visual Analog Scale) (participants; Person two, 180 min): 75; Anxiety (Visual Analog Scale) (participants; Person two, time 0, 200 mg oral): 65
